Our source for the IC50 values is patent US7772177B2, “BIR domain binding compounds” (Aegera Therapeutics, Inc., priority 2005, dated 2010).

The target of one experiment is T1, GST-HIAP2 (cIAP-1) BIR 3 (Homo sapiens, UniProt Q13490).
T1 construct: made in house; host or cells: E. coli DH5-alpha
Nature of the experiment: Fluorescence polarization-based competition assay, cIAP-1 Bir3. It counts as binding. The protocol:
GST-HIAP2 (cIAP-1) BIR 3: HIAP2 coding sequence from amino acids 251-363 cloned into PGex4T3 via BamH1 and XhoI. The plasmid was transformed into E. coli DH5α for use in protein expression and purification.
(§1) A fluorescent peptide probe, Fmoc-Ala-Val-Pro-Phe-Tyr(t-Bu)-Leu-Pro-Gly(t-Bu)-Gly-OH was prepared using standard Fmoc chemistry on 2-chlorotrityl chloride resin (Int. J. Pept. Prot. Res. 38:555-561, 1991). Cleavage from the resin was performed using 20% acetic acid in dichloromethane (DCM), which left the side chain still blocked. The C-terminal protected carboxylic acid was coupled to 4′-(aminomethyl)fluorescein (Molecular Probes, A-1351; Eugene, Oreg.) using excess diisopropylcarbodiimide (DIC) in dimethylformamide (DMF) at room temperature and was purified by silica gel chromatography (10% methanol in DCM). The N-terminal Fmoc protecting group was removed using piperidine (20%) in DMF, and purified by silica gel chromatography (20% methanol in DCM, 0.5% HOAc). Finally, the t-butyl side chain protective groups were removed using 95% trifluoroacetic acid containing 2.5% water and 2.5% triisopropyl silane. […] Compound #174 was also used as a fluorescent probe in this assay.
(§2) For all assays, the fluorescence and fluorescence-polarization was evaluated using a Tecan Polarion instrument with the excitation filter set at 485 nm and the emission filter set at 535 nm. For each assay, the concentration of the target protein was first establish by titration of the selected protein in order to produce a linear dose-response signal when incubated alone in the presence of the fluorescent probe. Upon establishing these conditions, the compounds potency (IC50) and selectivity, was assessed in the presence of a fix defined-amount of target protein and fluorescent probe and a 10 point serial dilution of the selected compounds. For each IC50 curve, the assays were run as followed: 25 ul/well of diluted compound in 50 mM MES buffer pH 6.5 were added into a black 96 well plate then 25 ul/well of bovine serum albumin (BSA) at 0.5 mg/ml in 50 mM MES pH 6.5. Auto-fluorescence for each compound was first assessed by performing a reading of the compound/BSA solution alone. Then 25 ul of the fluorescein probe diluted into 50 mM MES containing 0.05 mg/ml BSA were added and a reading to detect quenching of fluorescein signal done. Finally 25 ul/well of the target or control protein (GST-BIRs) diluted at the appropriate concentration in 50 mM MES containing 0.05 mg/ml BSA were added and the fluorescence polarization evaluated.
(§3) For each assay the relative polarization-fluorescence units were plotted against the final concentrations of compound and the IC50 calculated using the Grad pad prism software and/or Cambridge soft. The ki value were derived from the calculated IC50 value as described above and according to the equation described in Nikolovska-Coleska, Z. (2004) Anal Biochem 332, 261-273.
(§4) Compounds exemplified in Table 6 were tested and found to have IC50s in the following ranges: A: >10 μM; B: <10 μM; C: <1 μM using the fluorescence polarization assay, as shown in Table 5. Each of the IC50s was calculated from Graph Pad.
A general note: In fluorescence polarisation assays a small probe gives low polarisation when free and higher when bound to something large.

The target in a further experiment is T2, GST-XIAP BIR3RING (Homo sapiens, UniProt P98170).
T2 construct: made in house; host or cells: E. coli DH5-alpha
Nature of the experiment: Fluorescence polarization-based competition assay, XIAP Bir3-RING. It counts as binding. The protocol:
GST-XIAP BIR3RING: XIAP coding sequence amino acids 246-497 cloned into PGEX2T1 via BamH1 and AVA I. The plasmid was transformed into E. coli DH5α for use in protein expression and purification.
as §1, §2, §3, §4

The target in experiment [1] is T3, XIAP Bir3-RING (GST-BIR 3RING) (Homo sapiens, UniProt P98170).
T3 construct: made in house; host or cells: E. coli DH5-alpha
Nature of the experiment: Caspase de-repression assay using cellular extracts (apoptosome), XIAP Bir3-RING. In kind it is biochemical. The note with it: 293 cell S100 extract. How it is done: (§5) 100 ug of 293 cell S100 extract and 0.25 uM-2 uM of GST-Xiap fusion protein (GST-BIR 3RING, GST-linker BIR2 BIR3RING) were co-incubated with serial dilutions of compound (0.02 uM-40 uM). Extracts were activated by adding 1 mM dATP, 0.1 mM ALLN, 133 ug Cytochrome C (final concentrations), and incubating at 37° C. for 25 minutes. All reactions and dilutions used S100 buffer (50 mM Pipes pH 7.0, 50 mM KCl, 0.5 mM EGTA pH 8.0, 2 mM MgCl2 supplemented with 1/1000 dilutions of 2 mg/ml Cytochalisin B, 2, mg/ml Chymotstatin, Leupeptin, Pepstatin, Antipain, 0.1M PMSF, 1M DTT). Final reaction volume was 30 ul. Caspase-3 activity was measured by overlaying 30 ul of a 0.4 mM DEVD-AMC solution. AMC cleavage was measured in a TECAN spectrophotometer at 360 nm excitation and 444 nm emission, on a kinetic cycle of 1 hour with readings taken every 5 minutes. Caspase activity was calculated as Vo of AMC fluorescence/sec. Caspase de-repression by our compounds were compared to fully activated extract and activated extract repressed by the presence of XIAP fusion protein.
(§6) Results: Compounds were also tested in the apoptosome assay and the linker-BIR2/caspase-3 inhibition assay and found to have IC50s in the following ranges: A: >10 μM; B: <10 μM; C: <1 μM, as shown in Table 7.

Another experiment deals with T4, GST-HIAP1(cIAP-2) BIR 3 (Homo sapiens, UniProt Q13489).
T4 construct: made in house; host or cells: E. coli DH5-alpha
Briefly: Fluorescence polarization-based competition assay, cIAP-2 Bir3. It counts as binding. The protocol: GST-HIAP1(cIAP-2) BIR 3: HIAP1 coding sequence from amino acids 236-349, cloned into PGex4T3 via BamH1 and XhoI. The plasmid was transformed into E. coli DH5α for use in protein expression and purification.
as §1, §2, §3, §4

The target of experiment [2] is T5, XIAP Bir2-Bir3-RING (GST-linker BIR2 BIR3RING) (Homo sapiens, UniProt P98170).
T5 construct: made in house; host or cells: E. coli DH5-alpha
Nature of the experiment: Caspase de-repression assay using cellular extracts (apoptosome), XIAP Bir2-Bir3-RING. It counts as biochemical. The note with it: 293 cell S100 extract. The protocol:
as §5, §6

Experiment [3] concerns the target T6, caspase-3 inhibited by linker BIR2-BIR3-RING of XIAP (Homo sapiens, UniProt P98170).
T6 construct: made in house; host or cells: E. coli DH5-alpha (GST-XIAP); E. coli AD494 (His-caspase-3)
Briefly: Caspase-3 linker-BIR2-BIR3-RING derepression assay. In kind it is biochemical. How it is done:
In order to determine the relative activity of the selected compound against BIR2, an in vitro assay was used where caspase-3 was inhibited by linker-BIR2 or linker BIR2-BIR3-RING of XIAP. Briefly, 1.5 ul of the enzyme, 0.25 uM to 2 uM of GST-Xiap fusion protein (GST-linker BIR2, GST-linker BIR2BIR3RING) were co-incubated with serial dilutions of compound (80 uM-0.04 uM). Caspase 3 activity was measured by overlaying 25 ul of a 0.4 mM DEVD-AMC solution. Final reaction volume was 100 ul. All dilutions were performed in caspase buffer (50 mM Hepes pH 7.4, 100 mM NaCl, 10% sucrose, 1 mM EDTA, 10 mM DTT, 0.1% CHAPS (Stennicke, H. R., and Salvesen, G. S. (1997). Biochemical characteristics of caspase-3, -6, -7, and -8. J. Biol. Chem. 272, 25719-25723)).
The fluorescent AMC released from the caspase-3 hydrolysis of the substrate was measured in a TECAN spectrophotometer at 360 nm excitation and 444 nm emission, on a kinetic cycle of 30 minutes with readings taken every 2 minutes. Caspase activity was calculated as Vo of AMC fluorescence/sec. Caspase de-repression by our compounds were compared to caspase-3 alone and caspase 3 repressed by the presence of XIAP fusion protein.
as §6

T1 sequence (Q13490 251-363): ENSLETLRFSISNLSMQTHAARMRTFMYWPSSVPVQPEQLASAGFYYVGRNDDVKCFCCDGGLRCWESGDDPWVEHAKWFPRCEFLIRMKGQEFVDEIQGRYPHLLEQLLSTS
T4 sequence (Q13489 236-349): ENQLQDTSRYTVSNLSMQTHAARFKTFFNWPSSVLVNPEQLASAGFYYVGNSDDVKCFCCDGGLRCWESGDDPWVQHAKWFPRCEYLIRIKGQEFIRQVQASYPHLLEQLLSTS
T6 sequence (P98170 93-497): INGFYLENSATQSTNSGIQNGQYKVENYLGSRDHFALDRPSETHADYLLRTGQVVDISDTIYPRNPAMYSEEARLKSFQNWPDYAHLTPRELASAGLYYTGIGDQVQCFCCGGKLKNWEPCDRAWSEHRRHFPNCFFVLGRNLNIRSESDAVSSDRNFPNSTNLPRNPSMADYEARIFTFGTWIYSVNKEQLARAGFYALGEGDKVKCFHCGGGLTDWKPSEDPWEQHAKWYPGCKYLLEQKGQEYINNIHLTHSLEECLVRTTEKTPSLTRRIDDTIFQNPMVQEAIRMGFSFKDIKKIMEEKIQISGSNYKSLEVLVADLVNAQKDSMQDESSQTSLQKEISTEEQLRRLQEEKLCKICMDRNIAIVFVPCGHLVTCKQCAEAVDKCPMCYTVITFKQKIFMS
T5 sequence (P98170 93-497): as above
T3 sequence (P98170 246-497): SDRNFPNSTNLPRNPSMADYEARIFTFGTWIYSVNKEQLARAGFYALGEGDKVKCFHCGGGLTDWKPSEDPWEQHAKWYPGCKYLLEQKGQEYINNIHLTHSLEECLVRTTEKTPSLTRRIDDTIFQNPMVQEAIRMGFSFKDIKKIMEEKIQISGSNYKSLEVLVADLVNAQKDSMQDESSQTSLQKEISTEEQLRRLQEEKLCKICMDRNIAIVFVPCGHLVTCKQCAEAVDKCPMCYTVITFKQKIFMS
T2 sequence (P98170 246-497): as above

With `CC[C@H](N)C(=O)N[C@H](C(=O)N1CCC[C@H]1CNCCc1ccccc1)C(C)C` [Compound 2], the IC50 on GST-HIAP2 (cIAP-1) BIR 3 is less than 10 µM; at GST-XIAP BIR3RING, less than 10 µM; in experiment [1], more than 10 µM; at GST-HIAP1(cIAP-2) BIR 3, less than 10 µM; in experiment [2] it was more than 10 µM.
In the case of `CC(C)[C@H](NC(=O)[C@H](C)N)C(=O)N1CCC[C@H]1CN(C(=O)C(F)(F)F)[C@@H]1CCCc2ccccc21` [Compound 3], the IC50 at GST-HIAP2 (cIAP-1) BIR 3 is less than 10 µM; in experiment [3] it was less than 10 µM; on GST-XIAP BIR3RING, less than 10 µM; in experiment [1], less than 1 µM; on GST-HIAP1(cIAP-2) BIR 3 it was less than 10 µM; in experiment [2], more than 10 µM.
Turning to `CC(C)[C@H](NC(=O)[C@H](C)N)C(=O)N1CCC[C@H]1CN(C(=O)C(F)(F)F)[C@H]1CCCc2ccccc21` [Compound 4], the half-maximal inhibitory concentration (IC50) on GST-HIAP2 (cIAP-1) BIR 3 is less than 10 µM; in experiment [3] it was more than 10 µM; at GST-XIAP BIR3RING, less than 10 µM; in experiment [1] it was more than 10 µM; on GST-HIAP1(cIAP-2) BIR 3 it was less than 10 µM; in experiment [2], more than 10 µM.
For the compound `CC[C@H](N)C(=O)N[C@H](C(=O)N1CCC[C@H]1CN(CCc1ccccc1)C(C)=O)C(C)C` [Compound 5], the IC50 is less than 1 µM at GST-HIAP2 (cIAP-1) BIR 3; less than 10 µM in experiment [3]; less than 10 µM on GST-XIAP BIR3RING; less than 1 µM in experiment [1]; less than 1 µM on GST-HIAP1(cIAP-2) BIR 3; more than 10 µM in experiment [2].
For the compound `CC[C@H](N)C(=O)N[C@H](C(=O)N1CCC[C@H]1CN([C@H](C)c1ccccc1)S(C)(=O)=O)C(C)C` [Compound 6], the IC50 at GST-HIAP2 (cIAP-1) BIR 3 was more than 10 µM; in experiment [3] it was more than 10 µM; at GST-XIAP BIR3RING, more than 10 µM; in experiment [1], less than 1 µM; at GST-HIAP1(cIAP-2) BIR 3, more than 10 µM; in experiment [2], less than 10 µM.
With `CC(=O)N(Cc1ccccn1)C[C@@H]1CCCN1C(=O)[C@@H](NC(=O)[C@H](C)N)C(C)C` [Compound 8], the IC50 on GST-HIAP2 (cIAP-1) BIR 3 is less than 10 µM; in experiment [3], more than 10 µM; on GST-XIAP BIR3RING, more than 10 µM; in experiment [1], less than 1 µM; at GST-HIAP1(cIAP-2) BIR 3, less than 10 µM; in experiment [2], more than 10 µM.
On to `CC[C@H](N)C(=O)N[C@H](C(=O)N1CCC[C@H]1CN(C(C)=O)[C@@H]1CCCc2ccccc21)C(C)C` [Compound 9], for which the IC50 was more than 10 µM at GST-HIAP2 (cIAP-1) BIR 3; more than 10 µM in experiment [3]; less than 10 µM on GST-XIAP BIR3RING; less than 1 µM in experiment [1]; more than 10 µM at GST-HIAP1(cIAP-2) BIR 3; more than 10 µM in experiment [2].
Turning to `CN[C@@H](C)C(=O)N[C@H](C(=O)N1CCC[C@H]1CN(CCc1ccccc1)C(=O)C(F)(F)F)C(C)(C)C` [Compound 10], the IC50 at GST-HIAP2 (cIAP-1) BIR 3 is less than 1 µM; in experiment [3], more than 10 µM; at GST-XIAP BIR3RING it was less than 1 µM; in experiment [1] it was less than 10 µM; on GST-HIAP1(cIAP-2) BIR 3, less than 1 µM; in experiment [2], more than 10 µM.
Take `CC[C@H](N)C(=O)N[C@H](C(=O)N1CCC[C@H]1CN(Cc1ccccc1)C(=O)C(F)(F)F)C(C)C` [Compound 12]: the IC50 at GST-HIAP2 (cIAP-1) BIR 3 was more than 10 µM; in experiment [3], more than 10 µM; on GST-XIAP BIR3RING, less than 10 µM; in experiment [1] it was less than 1 µM; on GST-HIAP1(cIAP-2) BIR 3 it was more than 10 µM; in experiment [2], more than 10 µM.
In the case of `CNCC(=O)N(CCc1ccccc1)C[C@@H]1CCCN1C(=O)[C@@H](NC(=O)[C@H](C)NC)C(C)(C)C` [Compound 34], the IC50 on GST-HIAP2 (cIAP-1) BIR 3 was less than 1 µM; in experiment [3], more than 10 µM; on GST-XIAP BIR3RING, less than 1 µM; in experiment [1], less than 1 µM; on GST-HIAP1(cIAP-2) BIR 3, less than 1 µM.
In the case of `CN[C@@H](C)C(=O)N[C@H](C(=O)N1CCC[C@H]1CN(CCc1ccccc1)C(=O)CCC(=O)O)C(C)(C)C` [Compound 35], the IC50 on GST-HIAP2 (cIAP-1) BIR 3 is less than 1 µM; in experiment [3] it was more than 10 µM; at GST-XIAP BIR3RING it was less than 1 µM; in experiment [1], less than 1 µM; on GST-HIAP1(cIAP-2) BIR 3, less than 1 µM.

As usually defined, the IC50 is the concentration at which inhibition is half-maximal. A low value points to higher potency.
